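These data come from cells grown in 96-well plates and exposed to compound for 48 hours at five concentrations. TGI denotes the concentration required for complete inhibition of growth.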
How the values were obtained:
Assay in all cases: growth of human tumour cells (NCI), 48 h
OVCAR-5 ovarian = test system: OVCAR-5 ovarian
SK-MEL-28 melanoma = test system: SK-MEL-28 melanoma
MCF7 breast = test system: MCF7 breast
UO-31 renal = test system: UO-31 renal
K-562 leukemia = test system: K-562 leukemia
T-47D breast = test system: T-47D breast
SNB-19 CNS = test system: SNB-19 CNS
SNB-75 CNS = test system: SNB-75 CNS
SF-268 CNS = test system: SF-268 CNS
ACHN renal = test system: ACHN renal
A549 NSCLC = test system: A549 NSCLC
UACC-62 melanoma = test system: UACC-62 melanoma
NCI-H522 lung = test system: NCI-H522 lung
MDA-N = test system: MDA-N
SW-620 colon = test system: SW-620 colon
OVCAR-3 ovarian = test system: OVCAR-3 ovarian
LOX IMVI melanoma = test system: LOX IMVI melanoma

Measured: TGI

c1csc(-c2cc(-c3ccsc3)c(-c3cccs3)s2)c1
89.8 µM: MCF7 breast
> 100 µM: OVCAR-5 ovarian | SK-MEL-28 melanoma | UO-31 renal | K-562 leukemia | T-47D breast | SNB-19 CNS | SNB-75 CNS | SF-268 CNS | ACHN renal | A549 NSCLC | UACC-62 melanoma | NCI-H522 lung | MDA-N | SW-620 colon | OVCAR-3 ovarian

CC1=CC(=O)c2cccc(O)c2C1=O
20 µM: K-562 leukemia
17.4 µM: SNB-19 CNS
14.6 µM: SF-268 CNS
3.28 µM: UO-31 renal
3.68 µM: UACC-62 melanoma
7.81 µM: SK-MEL-28 melanoma
34.7 µM: A549 NSCLC
2.96 µM: OVCAR-3 ovarian
5.42 µM: NCI-H522 lung
4.08 µM: SW-620 colon
3.34 µM: MDA-N
14.8 µM: OVCAR-5 ovarian
3.72 µM: T-47D breast
8.6 µM: LOX IMVI melanoma
18 µM: SNB-75 CNS
3.17 µM: ACHN renal

O=C1c2ccccc2C(=O)c2[nH]c(=O)c(/C=N/Nc3ccc([N+](=O)[O-])cc3)nc21
> 25.3 µM: OVCAR-3 ovarian
45.4 µM: ACHN renal
> 44 µM: MCF7 breast
13 µM: NCI-H522 lung
> 30.5 µM: SK-MEL-28 melanoma
> 95 µM: T-47D breast
> 100 µM: SNB-19 CNS | A549 NSCLC
29.6 µM: SF-268 CNS
> 39.2 µM: LOX IMVI melanoma
4.16 µM: UACC-62 melanoma
> 76.5 µM: OVCAR-5 ovarian
> 45.4 µM: SW-620 colon
> 48 µM: UO-31 renal
> 65.4 µM: K-562 leukemia
2.63 µM: MDA-N

O=c1[nH]ncc2[nH]c3c(c12)CCCc1ccccc1-3
> 100 µM: OVCAR-5 ovarian | MCF7 breast | UO-31 renal | K-562 leukemia | T-47D breast | SNB-19 CNS | SF-268 CNS | ACHN renal | A549 NSCLC | UACC-62 melanoma | LOX IMVI melanoma | NCI-H522 lung | SW-620 colon | OVCAR-3 ovarian
98.8 µM: MDA-N

O=C(CN1CCOCC1)NC1=Nc2ncccc2C(=O)NN1
> 10 µM: OVCAR-5 ovarian | SK-MEL-28 melanoma | MCF7 breast | UO-31 renal | K-562 leukemia | T-47D breast | SNB-19 CNS | SNB-75 CNS | SF-268 CNS | ACHN renal | A549 NSCLC | UACC-62 melanoma | LOX IMVI melanoma | MDA-N | SW-620 colon | OVCAR-3 ovarian

CC1(C)C2CCC1(C)C(NC(=O)CCN1CCOCC1)C2 (configuration not stated)
> 100 µM: OVCAR-5 ovarian | SK-MEL-28 melanoma | MCF7 breast | UO-31 renal | K-562 leukemia | T-47D breast | SNB-19 CNS | SNB-75 CNS | SF-268 CNS | ACHN renal | A549 NSCLC | UACC-62 melanoma | NCI-H522 lung | MDA-N | SW-620 colon | OVCAR-3 ovarian

Oc1ccc2ccccc2c1N=Nc1ccc(N=Nc2ccccc2)cc1
> 100 µM: OVCAR-5 ovarian | SK-MEL-28 melanoma | UO-31 renal | K-562 leukemia | T-47D breast | SNB-19 CNS | SNB-75 CNS | SF-268 CNS | ACHN renal | A549 NSCLC | UACC-62 melanoma | LOX IMVI melanoma | NCI-H522 lung | MDA-N | SW-620 colon | OVCAR-3 ovarian

COC(=O)[C@@H]1C[C@H]2[C@H](c3ccccc3Br)[C@@H](OC(C)=O)[C@@H](OCc3ccccc3)ON2O1
> 100 µM: OVCAR-5 ovarian | SK-MEL-28 melanoma | MCF7 breast | UO-31 renal | K-562 leukemia | T-47D breast | SNB-19 CNS | SNB-75 CNS | SF-268 CNS | ACHN renal | A549 NSCLC | UACC-62 melanoma | LOX IMVI melanoma | MDA-N | SW-620 colon | OVCAR-3 ovarian

COc1cccc2c1[C@H](OC)[C@]13O[C@@]1(C2=O)[C@H](O)[C@H](C)[C@@](O)(C(=O)[C@@H]1O[C@H]1C)[C@@H]3O
1.22 µM: SF-268 CNS
0.768 µM: MDA-N
0.544 µM: SNB-75 CNS
> 100 µM: K-562 leukemia
2.05 µM: OVCAR-5 ovarian
0.729 µM: A549 NSCLC
0.654 µM: SK-MEL-28 melanoma
0.648 µM: LOX IMVI melanoma
0.7 µM: ACHN renal
4.86 µM: MCF7 breast
0.647 µM: UO-31 renal
1.96 µM: OVCAR-3 ovarian
0.877 µM: UACC-62 melanoma
0.403 µM: NCI-H522 lung

Nc1nonc1-c1noc(-c2nonc2N)[n+]1[O-]
28 µM: NCI-H522 lung
90.7 µM: A549 NSCLC
79.2 µM: SW-620 colon
> 100 µM: OVCAR-5 ovarian | SK-MEL-28 melanoma | MCF7 breast | UO-31 renal | K-562 leukemia | SNB-19 CNS | SF-268 CNS | ACHN renal | UACC-62 melanoma | LOX IMVI melanoma | MDA-N

O=C(Nc1ccccc1)N1CC(CN2CCN(c3ccccc3)CC2)OC1=O (configuration not stated)
> 100 µM: OVCAR-5 ovarian | SK-MEL-28 melanoma | MCF7 breast | UO-31 renal | K-562 leukemia | T-47D breast | SNB-19 CNS | SF-268 CNS | ACHN renal | A549 NSCLC | UACC-62 melanoma | LOX IMVI melanoma | NCI-H522 lung | MDA-N | SW-620 colon

c1ccc(N=C2SC(c3ccccc3)CN2C23CC4CC(CC(C4)C2)C3)cc1 (configuration not stated)
> 100 µM: OVCAR-5 ovarian | SK-MEL-28 melanoma | MCF7 breast | UO-31 renal | K-562 leukemia | SNB-19 CNS | SNB-75 CNS | SF-268 CNS | ACHN renal | A549 NSCLC | LOX IMVI melanoma | NCI-H522 lung | MDA-N | SW-620 colon | OVCAR-3 ovarian

C1CSCCSS[C@@H]2CCCCC2SC1 (some centres not stated)
> 100 µM: OVCAR-5 ovarian | SK-MEL-28 melanoma | MCF7 breast | UO-31 renal | K-562 leukemia | T-47D breast | SNB-19 CNS | SNB-75 CNS | SF-268 CNS | A549 NSCLC | UACC-62 melanoma | LOX IMVI melanoma | NCI-H522 lung | MDA-N | SW-620 colon | OVCAR-3 ovarian

CCCCCCCCCCCCCC/C(=C/OCC[N+](C)(C)C)OC(C)=O (tested in a mixture with another compound)
6.87 µM: A549 NSCLC
13.2 µM: OVCAR-5 ovarian
13.3 µM: K-562 leukemia
5.25 µM: UACC-62 melanoma
10.3 µM: MCF7 breast
8.21 µM: OVCAR-3 ovarian
30 µM: UO-31 renal
14 µM: ACHN renal
5.09 µM: SF-268 CNS
5.07 µM: NCI-H522 lung
10 µM: MDA-N
17.5 µM: SW-620 colon
7.3 µM: SNB-75 CNS
20.4 µM: SK-MEL-28 melanoma
3.35 µM: SNB-19 CNS

CC(C)Nc1n[nH]c(=O)n1C(C)C
> 100 µM: OVCAR-5 ovarian | SK-MEL-28 melanoma | MCF7 breast | UO-31 renal | K-562 leukemia | T-47D breast | SNB-19 CNS | SNB-75 CNS | SF-268 CNS | ACHN renal | A549 NSCLC | UACC-62 melanoma | LOX IMVI melanoma | MDA-N | SW-620 colon | OVCAR-3 ovarian

Reference: PubChem BioAssay (NCI)
